The source made the active and inactive calls. The calls are words filed in the database; no cut-off is given here.
Columns and labels:
[1] = Half life in human plasma by LC-MS/MS method; format: ADME, cell-free
[2] = Stability in PBS buffer assessed as drug degradation incubated for 30 to 120 mins by LC-MS/MS method; format: physicochemical; conditions: read-out: Drug degradation
[3] = Stability in presence of bovine serum and human K562/DOX cells assessed as drug degradation incubated for 30 to 120 mins by LC-MS/MS method; format: ADME; conditions: K562/DOX cells with bovine serum, read-out: Drug degradation
Homo sapiens [4] = organism: Homo sapiens
Description: Inhibition of P-gp in human K562/DOX cells assessed as drug level causing 50% increase in nuclear pirarubicin concentration incubated for 30 mins by spectroflurometry

K562 [5] = assay: Toxicity in human K562 cells assessed as reduction in cell viability at 0.1 to 3 uM incubated for 72 hrs by MTT assay; format: cell-based; conditions: k562, 72 h
[6] = Toxicity in human K562/Dox cells assessed as reduction in cell viability at 0.1 to 3 uM incubated for 72 hrs by MTT assay; format: cell-based
K562 [7] = assay: Potentiation of doxorubicin-induced cytotoxicity in human K562 cells assessed as reduction in cell viability at 0.1 to 3 uM incubated for 72 hrs by MTT assay; format: cell-based; conditions: k562, 72 h
Homo sapiens [8] = organism: Homo sapiens; assay: Inhibition of P-gp in human K562/DOX cells assessed as potentiation of doxorubicin-induced cytotoxicity by measuring reduction in doxorubicin IC50 at 0.1 uM incubated for 72 hrs by MTT assay relative to control; format: cell-based
Homo sapiens [9] = organism: Homo sapiens; assay: Inhibition of P-gp in human K562/DOX cells assessed as potentiation of doxorubicin-induced cytotoxicity by measuring reduction in doxorubicin IC50 at 1 uM incubated for 72 hrs by MTT assay relative to control; format: cell-based
Homo sapiens [10] = organism: Homo sapiens; assay: Inhibition of P-gp in human K562/DOX cells assessed as potentiation of doxorubicin-induced cytotoxicity by measuring reduction in doxorubicin IC50 at 3 uM incubated for 72 hrs by MTT assay relative to control; format: cell-based
K562 [11] = assay: Effect on rhodamine-123 efflux in human K562 cells at 1 uM incubated for 10 mins hrs by flow cytometry; format: ADME, cell-based; conditions: k562, 10 min
K562 [12] = assay: Inhibition of P-gp in human K562/DOX cells assessed as increase in rhodamine-123 […] in human K562 cells at 1 uM incubated for 10 mins hrs by flow cytometry relative to untreated control; format: cell-based
[13] = Stability in human plasma assessed as parent compound remaining incubated for 120 mins by LC-MS/MS method; format: ADME, cell-free; conditions: read-out: Stability

half-life [1] [h] | degraded [2] [%] | metabolised [3] [%] | remaining at 2 h [13] [%] | SMILES | I0.5 (Homo sapiens [4]) [µM] | Activity (K562 [5]) | Activity [6] | Activity (K562 [7]) | Ratio IC50 (Homo sapiens [8]) | Ratio IC50 (Homo sapiens [9]) | Ratio IC50 (Homo sapiens [10]) | Activity (K562 [11]) | fold change (FC) (K562 [12]) | inhibition (K562 [12])
≥ 4 | < 5 | < 5 |  | COc1cc(/C=C/C(=O)OCCCCN(C)[C@H]2CC[C@@H](OC(=O)c3cc(OC)c(OC)c(OC)c3)CC2)cc(OC)c1OC | 0.35 |  |  |  |  |  |  |  |  | 
≥ 4 | < 5 | < 5 |  | COc1cc(/C=C/C(=O)O[C@H]2CC[C@@H](N(C)CCCOC(=O)c3cc(OC)c(OC)c(OC)c3)CC2)cc(OC)c1OC | 0.47 |  |  |  |  |  |  |  |  | 
≥ 4 | < 5 | < 5 |  | COc1cc(/C=C/C(=O)O[C@H]2CC[C@@H](N(C)CCCCOC(=O)c3cc(OC)c(OC)c(OC)c3)CC2)cc(OC)c1OC | 0.29 | Non-Toxic | Non-Toxic | Non-Toxic | 2.8 | 4.6 | 34.9 | Non-Toxic | 10 to 80 | 
< 2 |  |  |  | CCOC(=O)C(C)c1cccc(C(=O)c2ccccc2)c1 (stereo not given) |  |  |  |  |  |  |  |  |  | 
 |  |  |  | COc1cc2c(cc1OC)CN(CCc1ccc(NC(=O)c3cc(OC)c(OC)cc3NC(=O)c3cnc4ccccc4c3)cc1)CC2 |  |  |  |  |  | 29.7 |  |  |  | Active
≤ 1 | < 5 | < 5 |  | COc1cc(/C=C/C(=O)O[C@H]2CC[C@H](N(C)CCCOC(=O)c3cc(OC)c(OC)c(OC)c3)CC2)cc(OC)c1OC | 0.07 |  |  |  |  |  |  |  |  | 
2 to 4 | < 5 | < 5 | 50 | COc1cc(/C=C/C(=O)OCCCCN(C)[C@H]2CC[C@H](OC(=O)c3cc(OC)c(OC)c(OC)c3)CC2)cc(OC)c1OC | 0.08 |  |  |  |  |  |  |  |  | 
≤ 2 | < 5 | < 5 |  | COc1cc(/C=C/C(=O)OCCCN(C)[C@H]2CC[C@H](OC(=O)c3cc(OC)c(OC)c(OC)c3)CC2)cc(OC)c1OC | 0.08 |  |  |  |  |  |  |  |  | 
≥ 4 | < 5 | < 5 |  | COc1cc(/C=C/C(=O)O[C@H]2CC[C@H](N(C)CCCCCOC(=O)c3cc(OC)c(OC)c(OC)c3)CC2)cc(OC)c1OC | 0.13 | Non-Toxic | Non-Toxic | Non-Toxic | 2.3 | 32.8 | 57.9 | Non-Toxic | 80 | 
≥ 4 | < 5 | < 5 |  | COc1cc(/C=C/C(=O)OCCCCCN(C)[C@H]2CC[C@@H](OC(=O)c3cc(OC)c(OC)c(OC)c3)CC2)cc(OC)c1OC | 0.51 |  |  |  |  |  |  |  |  | 
≥ 4 | < 5 | < 5 |  | COc1cc(/C=C/C(=O)O[C@H]2CC[C@@H](N(C)CCCCCOC(=O)c3cc(OC)c(OC)c(OC)c3)CC2)cc(OC)c1OC | 0.09 | Non-Toxic | Non-Toxic | Non-Toxic | 1.6 | 5.5 | 14.7 | Non-Toxic | 10 to 80 | 
≥ 4 | < 5 | < 5 |  | COc1cc(/C=C/C(=O)OCCCCCN(C)[C@H]2CC[C@H](OC(=O)c3cc(OC)c(OC)c(OC)c3)CC2)cc(OC)c1OC | 0.1 |  |  |  |  |  |  |  |  | 
≤ 2 | < 5 | < 5 |  | COc1cc(/C=C/C(=O)O[C@H]2CC[C@H](N(C)CCCCOC(=O)c3cc(OC)c(OC)c(OC)c3)CC2)cc(OC)c1OC | 0.06 | Non-Toxic | Non-Toxic | Non-Toxic | 3.3 | 12.9 | 50 | Non-Toxic | 60 | 
2 to 4 | < 5 | < 5 | 75 | COc1cc(/C=C/C(=O)OCCCN(C)[C@H]2CC[C@@H](OC(=O)c3cc(OC)c(OC)c(OC)c3)CC2)cc(OC)c1OC | 0.25 |  |  |  |  |  |  |  |  | 
